According to patent publication US9770026B2, “Substituted pyrimidine compound and uses thereof” (Shenyang Sinochem Agrochemicals R&D Co., Ltd., priority 2012, dated 2017):

Assays:
[1] = tested on: corn rust; test: protectant activity in vivo against corn rust
[2] = tested on: armyworm; test: bioactivity test against armyworm, airbrush spray; format: in vivo
[3] = tested on: carmine spider mite; test: bioactivity test against carmine spider mite, airbrush spray; format: in vivo
In short: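 Broadbean seedlings infested with adult mites were sprayed with compound (acetone/methanol stock diluted in 0.1% Tween 80 water) by airbrush at 0.7 kg/cm^2, 0.5 ml. Three replicates were run. Mortality was scored after 72 hrs.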

[4] = tested on: wheat powdery mildew; test: protectant activity in vivo against wheat powdery mildew; conditions: for protectant activity against wheat powdery mildew in vivo: 400 ppm
[5] = tested on: Green peach aphids (Myzus Persicae Sulzer); test: bioactivity test against green peach aphid, airbrush foliar spray; format: in vivo
In short: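 Aphids (15-30 per cabbage leaf disc) on moist filter paper were airbrush-sprayed at 10 psi, 0.5 mL, with compound from acetone:methanol (1:1) diluted in water with 0.1% tween 80. Held at 25±1 C, 60±5% RH; survivors counted after 48 hrs to give death rates.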

[6] = tested on: Diamond back moth; test: insecticidal activity against diamond back moth, airbrush spray; format: in vivo
In short: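 Airbrush leaf-disc spray test: both faces of 2 cm cabbage discs received 0.5 ml of test solution at 0.7 kg/cm^2. Solutions were made in acetone:methanol (1:1) and brought to concentration with 0.1% Tween 80 in water. Ten second-instar larvae per disc, triplicates, were held at 25° C and 60˜70% R.H., with mortality recorded at 72 hrs.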

[7] = 100 ppm, mortality after 72 hrs
[8] = 100 ppm, death rate after 48 hrs
[9] = 600 ppm, death rate after 48 hrs
[10] = 600 ppm, mortality after 72 hrs
[11] = 10 ppm, death rate after 48 hrs

With `CC(Cl)c1ncnc(NCCc2ccc(Oc3ncc(C(F)(F)F)cc3Cl)cc2)c1Cl` (centres unmarked) [CK44, reference compound] the “control effect against corn rust (%)” value ([1]; 400 mg/L, protectant activity) was 85%, the “Insecticidal activity against armyworm (%)” value ([2]; 600 mg/L) was 0% and the “Insecticidal activity against carmine spider mite (% )” value (shortened to “Insecticidal activity … (% )”) ([3]; 600 mg/L, contrastive test) was 0%. The “control effect against wheat powdery mildew (%)” value ([4]; 400 mg/L, protectant activity) was 0%, the “Insecticidal activity against peach aphid (%)” value ([5]; 2.5 mg/L, contrastive test) was 0% and the “Insecticidal activity against peach aphid (%)” value ([5]; 5 mg/L, contrastive test) was 19%. The “Insecticidal activity against peach aphid (%)” value ([5]; 10 mg/L, contrastive test) was 35%, the “Insecticidal activity against peach aphid (%)” value ([5]; 100 mg/L, contrastive test) was 98% and the “Insecticidal activity against peach aphid (%)” value ([5]; 600 mg/L, contrastive test) was 100%. For the same molecule, the “Insecticidal activity against diamond back moth (%)” value ([6]; 10 mg/L) was 10%, the “Insecticidal activity against diamond back moth (%)” value ([6]; 100 mg/L) was 25% and the “Insecticidal activity against diamond back moth (%)” value ([6]; 600 mg/L) was 80%.

For `Cc1ncnc(NCCc2ccc(Oc3ccc(C(F)(F)F)cn3)cc2)c1Cl` [Compound I-6729], the “protectant activity against corn rust in vivo” value ([1]; 25 ppm) was 100%, the “protectant activity against corn rust in vivo” value ([1]; 400 ppm) was 100% and the pest or weed control at 100 ppm ([1]; Zea mays, 168 h, read-out: protectant activity against corn rust in vivo, 100 ppm) was 100%. For the same molecule, the “control (test results against armyworm)” value ([2]; 600 ppm, mortality after 72 h) was 100%, the “Insecticidal activity … (% )” value ([3]; 2.5 mg/L) was 64% and the “Insecticidal activity … (% )” value ([3]; 5 mg/L) was 78%. For the same molecule, the “control against carmine spider mite” value [3, 7] was 100%, the pest or weed control at 10 µg/mL ([3]; Tetranychus cinnabarinus, 72 h, 10 mg/L, contrastive test, read-out: Insecticidal activity against carmine spider mite (% )) was 87% and the pest or weed control at 100 µg/mL ([3]; Tetranychus cinnabarinus, 72 h, 100 mg/L, contrastive test, read-out: Insecticidal activity against carmine spider mite (% )) was 100%. For the same molecule, the pest or weed control at 600 µg/mL ([3]; Tetranychus cinnabarinus, 72 h, 600 mg/L, contrastive test, read-out: Insecticidal activity against carmine spider mite (% )) was 100%, the pest or weed control at 600 ppm ([3]; Tetranychus cinnabarinus, 72 h, 600 ppm, mortality after 72 hrs) was 100% and the “protectant activity against wheat powdery mildew in vivo” value [4] was 100%. For the same molecule, the pest or weed control at 100 ppm ([4]; Triticum aestivum, 168 h, read-out: protectant activity against wheat powdery mildew in vivo, 100 ppm) was 100%, the “control (test results against green peach aphid)” value [5, 8] was 100% and the “control (test results against green peach aphid)” value [5, 9] was 100%. It also gave a pest or weed control at 10 ppm ([5]; Myzus persicae, foliar, 48 h, 10 ppm, death rate after 48 hrs) of 100% and a pest or weed control at 600 ppm ([6]; 72 h, 600 ppm, mortality after 72 hrs, read-out: control (test results against diamond back moth)) of 100%.

For `Cc1ncnc(NCCc2ccc(Oc3ccc(C(F)(F)F)cn3)cc2)c1Cl` [Compound I-6731], the “protectant activity against corn rust in vivo” value ([1]; 100 ppm) was 100%, the “protectant activity against corn rust in vivo” value ([1]; 400 ppm) was 100% and the pest or weed control at 600 ppm ([2]; 72 h, 600 ppm, mortality after 72 h) was 100%. The “control against carmine spider mite” value [3, 7] was 100%, the “control against carmine spider mite” value [3, 10] was 100% and the “protectant activity against wheat powdery mildew in vivo” value [4] was 100%. The “Insecticidal activity against peach aphid (%)” value ([5]; 1.25 mg/L, contrastive test) was 60%, the “control (test results against green peach aphid)” value ([5]; 5 ppm, death rate after 48 hrs) was 100% and the “control (test results against green peach aphid)” value [5, 11] was 100%. For the same molecule, the “control (test results against green peach aphid)” value [5, 8] was 100%, the “control (test results against green peach aphid)” value [5, 9] was 100% and the pest or weed control at 2.5 µg/mL ([5]; Myzus persicae, foliar, 48 h, 2.5 mg/L, contrastive test, read-out: Insecticidal activity against peach aphid (%)) was 93%. For the same molecule, the pest or weed control at 5 µg/mL ([5]; Myzus persicae, foliar, 48 h, 5 mg/L, contrastive test, read-out: Insecticidal activity against peach aphid (%)) was 100%, the pest or weed control at 10 µg/mL ([5]; Myzus persicae, foliar, 48 h, 10 mg/L, contrastive test, read-out: Insecticidal activity against peach aphid (%)) was 100% and the pest or weed control at 100 µg/mL ([5]; Myzus persicae, foliar, 48 h, 100 mg/L, contrastive test, read-out: Insecticidal activity against peach aphid (%)) was 100%. For the same molecule, the pest or weed control at 600 µg/mL ([5]; Myzus persicae, foliar, 48 h, 600 mg/L, contrastive test, read-out: Insecticidal activity against peach aphid (%)) was 100% and the “control (test results against diamond back moth)” value [6, 10] was 100%.

In the case of `Cc1ncnc(NCCc2ccc(Oc3ccc(C(F)(F)F)cn3)cc2)c1Cl` [Compound I-6733], the “protectant activity against corn rust in vivo” value ([1]; 100 ppm) was 100%, the “protectant activity against corn rust in vivo” value ([1]; 400 ppm) was 100% and the “control (test results against armyworm)” value ([2]; 600 ppm, mortality after 72 h) was 100%. The “control against carmine spider mite” value [3, 7] was 100%, the “control against carmine spider mite” value [3, 10] was 100% and the “protectant activity against wheat powdery mildew in vivo” value [4] was 100%. For the same molecule, the “control (test results against green peach aphid)” value [5, 11] was 100%, the “control (test results against green peach aphid)” value [5, 8] was 100% and the “control (test results against green peach aphid)” value [5, 9] was 100%. The “Insecticidal activity against diamond back moth (%)” value ([6]; 10 mg/L) was 40%, the “Insecticidal activity against diamond back moth (%)” value ([6]; 100 mg/L) was 68% and the “Insecticidal activity against diamond back moth (%)” value ([6]; 600 mg/L) was 100%. The “control (test results against diamond back moth)” value [6, 10] was 100%.
